Patent US20060062866A1, “Starch-pomegranate juice complex as an HIV entry inhibitor and topical microbicide” (NEW YORK BLOOD CENTER, INC., priority 2004, published 2006)

target: T1, gp120-CD4 binding (Human immunodeficiency virus type 1 group M subtype B, UniProt P03375); parameters: species or system HIV-1; conditions: purified commercial compounds at 200 μg/ml
T1 construct: coated with 100 ng/well of either gp120 IIIB or gp120 BaL
Procedure: CD4-HIV-1 gp120 binding and its inhibition were measured by ELISA. Wells of 96-well polystyrene plates (Immulon II, Dynatech Laboratories, Inc., Chantilly, Va.) were coated with 100 ng/well of either gp120 IIIB or gp120 BaL, and post-coated as described [Neurath, A. R., Strick, N., Li, Y. Y., Debnath, A. K.: Cellulose acetate phthalate, a common pharmaceutical excipient, inactivates HIV-1 and blocks the coreceptor binding site on the virus envelope glycoprotein gp120, BMC Infect. Dis., (2001), 1:17]. […] The wells were washed 5× with TS. Biotinyl-CD4 (1 μg/ml) in TS-1% gelatin was added to the wells for 5 hours at 37° C. After washing 1× with TS-0.1% Tween 20 and 5× with TS, horseradish peroxidase (HRP)-streptavidin (0.625 μg/ml; Amersham, Arlington Heights, Ill.) in TS-2% gelatin-0.05% Tween 20 was added. After 30 minutes at 37° C., the wells were washed 4 x with TS-0.1% Tween 20 and 2× with TS. Bound HRP-was detected using a kit from Kirkegaard and Perry Laboratories Inc. (Gaithersburg, Md.) and the absorbance (A) read at 450 nm. […] In an alternative assay, CD4 (500 ng/ml) was mixed with biotinyl-gp120 (1 μg/ml) in the presence or absence of inhibitors for 30 minutes at 20° C. Serial dilutions of the mixtures were added to wells coated with the anti-CD4 mAb OKT 4 (Ortho-Clinical Diagnostics, Rochester, N.Y.) and captured biotinyl-gp120 was detected with HRP-streptavidin as described above. To measure binding to gp120 of antibodies to gp120 peptides, the respective rabbit antisera were diluted 50-fold in a mixture of FBS and goat serum (9:1) containing 0.1% Tween 20 (pH 8.0) and added to gp120 wells. Bound IgG was detected with HRP labeled anti-rabbit IgG (Sigma, St. Louis, Mo.; 1 μg/ml in TS-10% goat serum-0.1% Tween 20). […] Briefly, FLSC (125 ng/ml) in the absence or presence of graded amounts of inhibitors was added to Cf2Th/synCCR5 cells fixed with 5% formaldehyde in wells of 96-well plates.

Row | Compound | blocking of gp120-CD4 binding (ELISA)
1 | C[C@H]1[C@H](C)CC[C@]2(C(=O)O)CC[C@]3(C)C(=CC[C@@H]4[C@@]5(C)CC[C@H](O)C(C)(C)[C@@H]5CC[C@]43C)[C@H]12 [ursolic acid] | did not block
2 | catechin | did not block
3 | O=C(O)/C=C/c1ccc(O)c(O)c1 [caffeic acid] | did not block
4 | O=c1c(O)c(-c2ccc(O)c(O)c2)oc2cc(O)cc(O)c12 [quercetin] | did not block
